Measured values as given in the supplement of paper PMC13380429.

Columns and labels:
Settings in all cases: 72 h
Calu-3 [1] = assay: cell viability relative to DMSO; higher = less toxic
Caco-2 [2] = assay: as above
Vero E6 [3] = assay: as above
U2OS [4] = assay: as above
Calu-3 [5] = assay: relative viability EC50 (midpoint between 100% and the lowest measured viability); higher = less toxic
Caco-2 [6] = assay: as above
Vero E6 [7] = assay: as above
U2OS [8] = assay: as above
Calu-3 [9] = assay: drug sensitivity score (DSS) for viability; higher = more toxic; extreme values may be limits of the assay
Caco-2 [10] = assay: as above
Vero E6 [11] = assay: as above
U2OS [12] = assay: as above
HepG2 [13] = assay: cell viability relative to DMSO; higher = less toxic
HepG2 [14] = assay: drug sensitivity score (DSS) for viability; higher = more toxic; extreme values may be limits of the assay
HepG2 [15] = assay: relative viability EC50 (midpoint between 100% and the lowest measured viability); higher = less toxic

SMILES | cell viability (Calu-3 [1]; 1 nM) [%] | cell viability (Calu-3 [1]; 10 nM) [%] | cell viability (Calu-3 [1]; 100 nM) [%] | cell viability (Calu-3 [1]; 1000 nM) [%] | cell viability (Calu-3 [1]; 10000 nM) [%] | cell viability (Caco-2 [2]; 1 nM) [%] | cell viability (Caco-2 [2]; 10 nM) [%] | cell viability (Caco-2 [2]; 100 nM) [%] | cell viability (Caco-2 [2]; 1000 nM) [%] | cell viability (Caco-2 [2]; 10000 nM) [%] | cell viability (Vero E6 [3]; 1 nM) [%] | cell viability (Vero E6 [3]; 10 nM) [%] | cell viability (Vero E6 [3]; 100 nM) [%] | cell viability (Vero E6 [3]; 1000 nM) [%] | cell viability (Vero E6 [3]; 10000 nM) [%] | cell viability (U2OS [4]; 1 nM) [%] | cell viability (U2OS [4]; 10 nM) [%] | cell viability (U2OS [4]; 100 nM) [%] | cell viability (U2OS [4]; 1000 nM) [%] | cell viability (U2OS [4]; 10000 nM) [%] | relative viability EC50 (Calu-3 [5]) [µM] | relative viability EC50 (Caco-2 [6]) [µM] | relative viability EC50 (Vero E6 [7]) [µM] | relative viability EC50 (U2OS [8]) [µM] | drug sensitivity score (Calu-3 [9]) | drug sensitivity score (Caco-2 [10]) | drug sensitivity score (Vero E6 [11]) | drug sensitivity score (U2OS [12]) | cell viability (HepG2 [13]; 1 nM) [%] | cell viability (HepG2 [13]; 10 nM) [%] | cell viability (HepG2 [13]; 100 nM) [%] | cell viability (HepG2 [13]; 1000 nM) [%] | cell viability (HepG2 [13]; 10000 nM) [%] | drug sensitivity score (HepG2 [14]) | relative viability EC50 (HepG2 [15]) [µM]
C=C[C@](C)(O)CC[C@@H]1[C@@]2(C)CCCC(C)(C)[C@@H]2CC[C@@]1(C)O [sclareol] | 101 | 98.7 | 98.7 | 104 | 94.4 | 101 | 98.8 | 99.7 | 102 | 87.6 | 101 | 100 | 102 | 99.6 | 104 | 107 | 96.6 | 96.4 | 98.8 | 94.6 | > 10 | > 10 | > 10 | > 10 | 0 | 0 | 0 | 0 | – | – | – | – | – | – | –
CCCCCCCC/C=C\CCCCCCCC(=O)NCCc1ccc(O)c(O)c1 [OLDA] | 105 | 98.6 | 97.9 | 103 | 104 | 98.1 | 90.4 | 96.7 | 92 | 61.9 | 106 | 101 | 99 | 99.2 | 61.7 | 101 | 99.1 | 98.3 | 94.6 | 25.9 | > 10 | – | – | 2.58 | 0 | 3.2 | 2 | 4.9 | 98.1 | 107 | 100 | 103 | 56.3 | 2 | –
COc1cc2nccc(Oc3ccc(NC(=O)NC4CC4)c(Cl)c3)c2cc1C(N)=O [lenvatinib] | 115 | 98.1 | 89.6 | 94.7 | 68.3 | 106 | 95.5 | 94.7 | 91.2 | 75.6 | 102 | 106 | 106 | 99.1 | 99.6 | 105 | 101 | 101 | 90.8 | 76.3 | – | > 10 | > 10 | > 10 | 2.3 | 1.4 | 0 | 2 | 110 | 108 | 105 | 110 | 95.4 | 0 | > 10
CCCCCCCCCCCCCCCC(=O)O[C@@H]1[C@@H](O)[C@@H](O)[C@@H]([C@H](NC(=O)[C@@H]2C[C@@H](CCC)CN2C)[C@H](C)Cl)O[C@@H]1SC [clindamycin-palmitate] | 99.9 | 102 | 103 | 96.7 | 104 | 95 | 94.7 | 90.2 | 101 | 95.4 | 95.5 | 96.6 | 93.5 | 97 | 103 | 94.2 | 99.7 | 97.7 | 101 | 106 | > 10 | > 10 | > 10 | > 10 | 0 | 0 | 0 | 0 | – | – | – | – | – | – | –
CC(C)CCC[C@@H](C)[C@H]1CC[C@H]2[C@@H]3CC=C4C[C@@H](O)CC[C@]4(C)[C@H]3CC[C@]12C [cholesterol] | – | – | – | – | – | 89.4 | 92.1 | 102 | 90.4 | 98.9 | 97.1 | 98.2 | 92.2 | 97.6 | 107 | 102 | 93.3 | 98.2 | 94 | 100 | – | > 10 | > 10 | > 10 | – | 0 | 0 | 0 | 92.6 | 97.4 | 91.6 | 106 | 104 | 0 | > 10
N=C(N)NC(=N)Nc1ccccc1 [1-phenylbiguanide] | – | – | – | – | – | 96.3 | 94.8 | 95.5 | 92.4 | 98.8 | 100 | 93.4 | 94.8 | 99.4 | 101 | 99.3 | 97.7 | 103 | 101 | 100 | – | > 10 | > 10 | > 10 | – | 0 | 0 | 0 | 97.3 | 106 | 103 | 109 | 101 | 0 | > 10
Brc1c(Br)c(Br)c2[nH]nnc2c1Br [4,5,6,7-tetrabromobenzotriazole] | – | – | – | – | – | 93.8 | 107 | 90.4 | 95.7 | 99.2 | 105 | 103 | 101 | 99.4 | 103 | 97.2 | 98 | 97.9 | 100 | 99.2 | – | > 10 | > 10 | > 10 | – | 0 | 0 | 0 | 117 | 93.9 | 102 | 93.3 | 107 | 0 | > 10
C[C@@H](O)[C@H]1C(=O)N2C(C(=O)[O-])=C(SC3Cn4cnc[n+]4C3)[C@H](C)[C@H]12 (some centres undefined) [biapenem] | – | – | – | – | – | 86.6 | 104 | 96.3 | 93.3 | 97.3 | 98.1 | 100 | 94.7 | 103 | 99.8 | 98.6 | 104 | 96.3 | 97.1 | 100 | – | > 10 | > 10 | > 10 | – | 0 | 0 | 0 | 97.1 | 98 | 93.3 | 90.7 | 95.2 | 0 | > 10
